Publication PMC4147592 (2014)

What was measured:
[1] = tested on: A08 minimer (DNA, aptamer) GGCAGTGTGGGCGAATCTATGCGTACCGTTCGATATCGTG; assay: SYBR Green I displacement fluorescence; details: 137 mM NaCl, 2.7 mM KCl, 10 mM Na2HPO4, 2 mM KH2PO4, pH 7.4, tracer SYBR Green I
[2] = tested on: B08 (DNA, aptamer) AGCCTCGTCTGTTCTCCCGGCGCATGATCATTCGGTGGGTAAGGTGGTGGTAACGTTGGGGAAGACAAGCAGACGT; assay: SYBR Green I displacement fluorescence; details: 137 mM NaCl, 2.7 mM KCl, 10 mM Na2HPO4, 2 mM KH2PO4, pH 7.4, tracer SYBR Green I
[3] = tested on: A08 (DNA, aptamer) AGCCTCGTCTGTTCTCCCGGCAGTGTGGGCGAATCTATGCGTACCGTTCGATATCGTGGGGAAGACAAGCAGACGT; assay: SYBR Green I displacement fluorescence; details: 137 mM NaCl, 2.7 mM KCl, 10 mM Na2HPO4, 2 mM KH2PO4, pH 7.4, tracer SYBR Green I
[4] = tested on: A08 minimer (DNA, aptamer) GGCAGTGTGGGCGAATCTATGCGTACCGTTCGATATCGTG; assay: fluorescence enhancement at 520 nm; details: 137 mM NaCl, 2.7 mM KCl; 10 mM Na2HPO4, 2 mM KH2PO4, pH 7.4; excitation 497 nm
[5] = tested on: B08 (DNA, aptamer) AGCCTCGTCTGTTCTCCCGGCGCATGATCATTCGGTGGGTAAGGTGGTGGTAACGTTGGGGAAGACAAGCAGACGT; assay: fluorescence enhancement at 520 nm; details: 137 mM NaCl, 2.7 mM KCl; 10 mM Na2HPO4, 2 mM KH2PO4, pH 7.4; excitation 497 nm
[6] = tested on: Non-specific control (DNA, single strand) AGCACGTTGGTAGGTCGGTTTGGGTTTCGTGC; assay: fluorescence enhancement at 520 nm; details: 137 mM NaCl, 2.7 mM KCl; 10 mM Na2HPO4, 2 mM KH2PO4, pH 7.4; excitation 497 nm
[7] = tested on: A08 (DNA, aptamer) AGCCTCGTCTGTTCTCCCGGCAGTGTGGGCGAATCTATGCGTACCGTTCGATATCGTGGGGAAGACAAGCAGACGT; assay: fluorescence enhancement at 520 nm; details: 137 mM NaCl, 2.7 mM KCl; 10 mM Na2HPO4, 2 mM KH2PO4, pH 7.4; excitation 497 nm
[8] = tested on: Non-specific control (DNA, single strand) AGCACGTTGGTAGGTCGGTTTGGGTTTCGTGC; assay: SYBR Green I displacement fluorescence; details: 137 mM NaCl, 2.7 mM KCl; 10 mM Na2HPO4, 2 mM KH2PO4, pH 7.4; tracer SYBR Green I; highest OTA about 0.18 µM
[9] = tested on: B08 (DNA, aptamer) AGCCTCGTCTGTTCTCCCGGCGCATGATCATTCGGTGGGTAAGGTGGTGGTAACGTTGGGGAAGACAAGCAGACGT; assay: magnetic beads isocratic elution, fluorescence; details: 137 mM NaCl, 2.7 mM KCl; immobilised compound (amine Dynabeads, EDC); 10 mM Na2HPO4, 2 mM KH2PO4, pH 7.4; apparent
[10] = tested on: A08 (DNA, aptamer) AGCCTCGTCTGTTCTCCCGGCAGTGTGGGCGAATCTATGCGTACCGTTCGATATCGTGGGGAAGACAAGCAGACGT; assay: magnetic beads isocratic elution, fluorescence; details: 137 mM NaCl, 2.7 mM KCl; immobilised compound (amine Dynabeads, EDC); 10 mM Na2HPO4, 2 mM KH2PO4, pH 7.4; apparent
[11] = tested on: 1.12.2 (DNA, aptamer) GATCGGGTGTGGGTGGCGTAAAGGGAGCATCGGACA; assay: magnetic beads isocratic elution, fluorescence; details: 137 mM NaCl, 2.7 mM KCl; immobilised compound (amine Dynabeads, EDC); 10 mM Na2HPO4, 2 mM KH2PO4, pH 7.4; apparent
[12] = compared at 30 and 100 nM, highest about 0.18 µM

Q: With CC(=O)CC(c1ccccc1)c1c(O)c2ccccc2oc1=O (stereo not shown) as the compound, how does the binding [1, 12] read?
A: no

Q: And the binding ([2]; OTA signal 2–3 fold larger)?
A: weak

Q: What about the binding [3, 12] of the same compound?
A: no

Q: CCCN(CCCN(C)C)c1cc(C=C2Sc3ccccc3N2C)c2ccccc2[n+]1-c1ccccc1 was tested. Which binding [4] did it give?
A: yes

Q: And the binding [5]?
A: yes

Q: What about the binding [6] of the same compound?
A: yes

Q: What about the binding [7] of the same compound?
A: yes

Q: C[C@@H]1Cc2c(Cl)cc(C(=O)N[C@@H](Cc3ccccc3)C(=O)O)c(O)c2C(=O)O1 was tested. Which binding ([1]; linear signal to 100 nM OTA) did it give?
A: yes

Q: And the binding [2]?
A: yes

Q: What about the binding [8] of the same compound?
A: no

Q: And the KD [9]?
A: 110 ± 50 nM

Q: And the KD [10]?
A: 290 ± 150 nM

Q: And the KD [11]?
A: 370 ± 250 nM

Q: What does the source list for C[C@@H]1Cc2ccc(C(=O)N[C@@H](Cc3ccccc3)C(=O)O)c(O)c2C(=O)O1?
A: binding ([1]; OTA signal 6–10 fold larger): weak; binding ([2]; OTA signal 2–3 fold larger): weak; binding ([3]; OTA signal 6–10 fold larger): weak
